The subject of assay [1] is HME-TERT-KRAS (G13D) cells. In words: MTS cell proliferation assay, HME-TERT cells carrying KRAS mutation. Type of assay: cell-based, human. To be noted: for EC50: Homo sapiens, HME-TERT-KRAS (G13D), MTS, 0.5% FBS, read-out: Inhibition of cell proliferation: EC50, KRAS. The procedure: (§1) To investigate the effect of phenformin on proliferation of cells carrying a KRAS mutation, HME cell proliferation assays were performed. An isogenic HME-TERT cell line carrying a mutation in KRAS (G13D) was generated by a “knock in” approach. HME-TERT-KRAS (G13D) cells and control HME parental cells were cultured in DMEM/F12K (glucose 17 mM, glutamine 2.5 mM) with 0.5% FBS, and were treated with a series of dilution of Paclitaxel (100 nM top concentration, 3-fold dilution), Phenformin (3 mM top concentration, 3-fold dilution), or metformin (10 mM top concentration, 3-fold dilution), in duplication or triplication. MTS assays were performed 48, 72, 96 or 120 hours after drug treatment. MTS assay is a colorimetric assay for determining the number of viable cells (see, e.g., Cory A H et al., 1991, Cancer communications 3 (7): 207-12, and Wilson, A P, Cytotoxicity and Viability Assays in Animal Cell Culture: A Practical Approach, 3rd ed. (ed. Masters, J. R. W.) Oxford University Press, 2000, Vol. 1). […] Z′ is defined as Z′=1-3(MAX stdev−background stdev)/(MAX−background). A Z′ value greater than 0.4 is acceptable for cell assays, and a Z′ value greater than 0.6 is acceptable for enzyme assays.
In general terms: Tetrazolium assays rely on reduction of a dye to a coloured formazan, in cell work by metabolically active cells.

Assay [2] concerns HME-TERT-EGFR (del E746-A750) cells. In words: MTS cell proliferation assay, HME-TERT cells carrying EGFR mutation. Format: cell-based, human. The note with it: for EC50: Homo sapiens, HME-TERT-EGFR (del E746-A750), MTS, 0.5% FBS, read-out: Inhibition of cell proliferation: EC50, EGFR. On the procedure:
(§2) To investigate the effect of phenformin on proliferation of cells carrying an EGFR mutation, HME cell proliferation assays were performed. An isogenic HME-TERT cell line carrying a mutation in EGFR (del E746-A750) was generated by a “knock in” approach. HME-TERT-EGFR (del E746-A750) cells and control HME parental cells were cultured in DMEM/F12K (glucose 17 mM, glutamine 2.5 mM) with 0.5% FBS, and were treated with a series of dilution of Paclitaxel (100 nM top concentration, 3-fold dilution), Phenformin (3 mM top concentration, 3-fold dilution), or metformin (10 mM top concentration, 3-fold dilution), in duplication or triplication. MTS assays were performed 48, 72, 96 or 120 hours after drug treatment. MTS assay is a colorimetric assay for determining the number of viable cells (see, e.g., Cory A H et al., 1991, Cancer communications 3 (7): 207-12, and Wilson, A P, Cytotoxicity and Viability Assays in Animal Cell Culture: A Practical Approach, 3rd ed. (ed. Masters, J. R. W.) Oxford University Press, 2000, Vol. 1). […] Z′ is defined as Z′=1-3(MAX stdev−background stdev)/(MAX−background). A Z′ value greater than 0.4 is acceptable for cell assays, and a Z′ value greater than 0.6 is acceptable for enzyme assays.

Assay [3] relates to HME-TERT parental (wild type) cells. As to the kind of experiment: MTS cell proliferation assay, control HME parental (WT) cells. Type of assay: cell-based. The note with it: Homo sapiens, 0.5% FBS, read-out: Inhibition of cell proliferation: EC50, WT. On the procedure:
as §2, §1

Assay [4] has as its system A549 NSCL (KRAS mutant) cells. In words: A549 cell proliferation assay (Cell TiterGlow, total ATP). To be noted: for EC50: Homo sapiens, A549, DMEM 10% FBS, 72 hours, Cell TiterGlow, read-out: EC50, inhibition of A549 cell proliferation. Format: cell-based. On the procedure:
To investigate the effect of phenformin on proliferation of a commonly used cancer cell line A549 NSCL (KRAS mutant), a cell proliferation assay was performed. A549 cells were grown in DMEM with 10% FBS, and were treated with designated concentrations (phenformin dose range 0-100 μM; metformin dose range 0-3000 μM) of drugs for 72 hours. Cell viability was determined with Cell TiterGlow to measure total ATP content in live cells.
In general terms: In ATP-based viability assays light output follows the ATP content of the culture.

Each structure is given as a SMILES string. Where two headings read alike, the source gives them in different places. Where only a bound is given, the exact number is not on record here.

Take `CN(C)C(=N)N=C(N)N` [metformin]: the EC50 in assay [1] (48 h), in assay [1] (72 h), in assay [1] (96 h), in assay [1] (120 h), in assay [2] (48 h) and in assay [2] (72 h) was over 3000 µM in each case. The EC50 in assay [2] (96 h), in assay [2] (120 h), in assay [3] (48 h after drug treatment), in assay [3] (72 h after drug treatment), in assay [3] (96 h after drug treatment) and in assay [3] (120 h after drug treatment) was over 3000 µM each time. Moreover, the EC50 in assay [4] was 650 µM.

Consider `N=C(N)NC(=N)NCCc1ccccc1` [phenformin], for which the EC50 amounted to 1640 µM in assay [1] (48 h); 1250 µM in assay [1] (72 h); 727 µM in assay [1] (96 h); 440 µM in assay [1] (120 h); 1680 µM in assay [2] (48 h); 632 µM in assay [2] (72 h). Also, the EC50 in assay [2] (96 h) came to 486 µM; in assay [2] (120 h), 393 µM; in assay [3] (48 h after drug treatment), 2090 µM; in assay [3] (72 h after drug treatment), 1690 µM; in assay [3] (96 h after drug treatment), 1140 µM; in assay [3] (120 h after drug treatment), 626 µM. Besides, the EC50 in assay [4] stood at 5 µM. For the same molecule, in assay [1] (MTS assay, result in words), the “inhibition of proliferation of KRAS mutated HME cells compared with wild type cells” value was “more than that of wild type cells”. The “inhibition of proliferation of EGFR mutated HME cells compared with wild type cells” value in assay [2] (MTS assay, result in words) is listed as “more than that of wild type cells”. Also, in assay [4] (A549, 72 hours, ratio of EC50 values), the “fold more sensitive than metformin in inhibiting the proliferation of A549 cells” value is reported as “about 112 fold”.

Values taken from patent US20120041070A1, “METHODS OF TREATING CANCER HAVING AN ABERRANT EGFR OR KRAS GENOTYPE” (priority 2009, published 2012).
